Test results: ChEMBL document CHEMBL2331144, “Synthesis and anticancer activity of analogues of phenstatin, with a phenothiazine A-ring, as a new class of microtubule-targeting agents” (Bioorg Med Chem Lett, 2013)

Legend:
SF-295 = assay: Growth inhibition of human SF295 cells after 48 hrs by sulforhodamine B assay; format: functional; settings: SF-295, 48 h
SK-MEL-28 = assay: Growth inhibition of human SK-MEL-28 cells after 48 hrs by sulforhodamine B assay; format: functional; settings: SK-MEL-28, 48 h
HL-60(TB) = assay: Growth inhibition of human HL-60(TB) cells after 48 hrs by sulforhodamine B assay; format: functional; settings: HL-60, 48 h
HT-29 = assay: Growth inhibition of human HT-29 cells after 48 hrs by sulforhodamine B assay; format: functional; settings: HT-29, 48 h
[1] = Inhibition of sheep brain tubulin polymerization using DAPI by fluorimetry; design: species or system Ovis aries
[2] = Growth inhibition of human EKVX cells after 48 hrs by sulforhodamine B assay; format: functional
SF-268 = assay: Growth inhibition of human SF268 cells after 48 hrs by sulforhodamine B assay; format: functional; settings: SF-268, 48 h
A549 = assay: Growth inhibition of human A549/ATCC cells after 48 hrs by sulforhodamine B assay; format: functional; settings: A549, 48 h
CAKI-1 = assay: Growth inhibition of human CAKI-1 cells after 48 hrs by sulforhodamine B assay; format: functional; settings: CAKI-1, 48 h
Malme-3M = assay: Growth inhibition of human MALME-3M cells after 48 hrs by sulforhodamine B assay; format: functional
[3] = Growth inhibition of human NCI-ADR-RES cells after 48 hrs by sulforhodamine B assay; format: functional
786-0 = assay: Growth inhibition of human 786-0 cells after 48 hrs by sulforhodamine B assay; format: functional; settings: 786-0, 48 h
Ovis aries = species: Ovis aries; assay: Inhibition of sheep brain tubulin polymerization at 100 uM using DAPI by fluorimetry
HCT-116 = assay: Growth inhibition of human HCT116 cells after 48 hrs by sulforhodamine B assay; format: functional; settings: HCT-116, 48 h
SK-OV-3 = assay: Growth inhibition of human SKOV3 cells after 48 hrs by sulforhodamine B assay; format: functional; settings: SK-OV-3, 48 h
OVCAR-3 = assay: Growth inhibition of human OVCAR3 cells after 48 hrs by sulforhodamine B assay; format: functional; settings: OVCAR-3, 48 h
[4] = Growth inhibition of human Hs 578T cells after 48 hrs by sulforhodamine B assay; format: functional
SF-539 = assay: Growth inhibition of human SF539 cells after 48 hrs by sulforhodamine B assay; format: functional; settings: SF-539, 48 h
PC-3 = assay: Growth inhibition of human PC3 cells after 48 hrs by sulforhodamine B assay; format: functional; settings: PC-3, 48 h
IGROV-1 = assay: Growth inhibition of human IGROV1 cells after 48 hrs by sulforhodamine B assay; format: functional; settings: IGROV-1, 48 h
MOLT-4 = assay: Growth inhibition of human MOLT4 cells after 48 hrs by sulforhodamine B assay; format: functional; settings: MOLT-4, 48 h
OVCAR-5 = assay: Growth inhibition of human OVCAR5 cells after 48 hrs by sulforhodamine B assay; format: functional; settings: OVCAR-5, 48 h
SK-MEL-2 = assay: Growth inhibition of human SK-MEL-2 cells after 48 hrs by sulforhodamine B assay; format: functional; settings: SK-MEL-2, 48 h
A498 = assay: Growth inhibition of human A498 cells after 48 hrs by sulforhodamine B assay; format: functional; settings: A498, 48 h
MDA-MB-468 = assay: Growth inhibition of human MDA-MB-468 cells after 48 hrs by sulforhodamine B assay; format: functional; settings: MDA-MB-468, 48 h
MDA-MB-231 = assay: Growth inhibition of human MDA-MB-231 cells after 48 hrs by sulforhodamine B assay; format: functional; settings: MDA-MB-231, 48 h
MCF7 = assay: Growth inhibition of human MCF7 cells after 48 hrs by sulforhodamine B assay; format: functional; settings: MCF7, 48 h
SR = assay: Growth inhibition of human SR cells after 48 hrs by sulforhodamine B assay; format: functional
M14 = assay: Growth inhibition of human M14 cells after 48 hrs by sulforhodamine B assay; format: functional; settings: M14, 48 h
HOP-92 = assay: Growth inhibition of human HOP92 cells after 48 hrs by sulforhodamine B assay; format: functional; settings: HOP-92, 48 h
NCI-H522 = assay: Growth inhibition of human NCI-H522 cells after 48 hrs by sulforhodamine B assay; format: functional; settings: NCI-H522, 48 h
UACC-257 = assay: Growth inhibition of human UACC257 cells after 48 hrs by sulforhodamine B assay; format: functional; settings: UACC-257, 48 h
RPMI-8226 = assay: Growth inhibition of human RPMI8226 cells after 48 hrs by sulforhodamine B assay; format: functional; settings: RPMI-8226, 48 h
K562 = assay: Growth inhibition of human K562 cells after 48 hrs by sulforhodamine B assay; format: functional; settings: K562, 48 h
SK-MEL-5 = assay: Growth inhibition of human SK-MEL-5 cells after 48 hrs by sulforhodamine B assay; format: functional; settings: SK-MEL-5, 48 h
HOP-62 = assay: Growth inhibition of human HOP62 cells after 48 hrs by sulforhodamine B assay; format: functional; settings: HOP-62, 48 h
COLO 205 = assay: Growth inhibition of human COLO205 cells after 48 hrs by sulforhodamine B assay; format: functional; settings: COLO 205, 48 h
[5] = Growth inhibition of human HCC2998 cells after 48 hrs by sulforhodamine B assay; format: functional; settings: HCC 2998, 48 h
OVCAR-8 = assay: Growth inhibition of human OVCAR8 cells after 48 hrs by sulforhodamine B assay; format: functional; settings: OVCAR-8, 48 h
CCRF-CEM = assay: Growth inhibition of human CCRF-CEM cells after 48 hrs by sulforhodamine B assay; format: functional
LOX IMVI = assay: Growth inhibition of human LOXIMVI cells after 48 hrs by sulforhodamine B assay; format: functional
T47D = assay: Growth inhibition of human T47D cells after 48 hrs by sulforhodamine B assay; format: functional
RXF 393 = assay: Growth inhibition of human RXF393 cells after 48 hrs by sulforhodamine B assay; format: functional; settings: RXF 393, 48 h
SNB-75 = assay: Growth inhibition of human SNB75 cells after 48 hrs by sulforhodamine B assay; format: functional; settings: SNB-75, 48 h
NCI-H23 = assay: Growth inhibition of human NCI-H23 cells after 48 hrs by sulforhodamine B assay; format: functional; settings: NCI-H23, 48 h
BT-549 = assay: Growth inhibition of human BT549 cells after 48 hrs by sulforhodamine B assay; format: functional; settings: BT-549, 48 h
DU-145 = assay: Growth inhibition of human DU145 cells after 48 hrs by sulforhodamine B assay; format: functional; settings: DU-145, 48 h
SW-620 = assay: Growth inhibition of human SW620 cells after 48 hrs by sulforhodamine B assay; format: functional; settings: SW-620, 48 h
KM12 = assay: Growth inhibition of human KM12 cells after 48 hrs by sulforhodamine B assay; format: functional; settings: KM12, 48 h
MDA-MB-435 = assay: Growth inhibition of human MDA-MB-435 cells after 48 hrs by sulforhodamine B assay; format: functional; settings: MDA-MB-435, 48 h
UACC-62 = assay: Growth inhibition of human UACC62 cells after 48 hrs by sulforhodamine B assay; format: functional; settings: UACC-62, 48 h
HCT-15 = assay: Growth inhibition of human HCT15 cells after 48 hrs by sulforhodamine B assay; format: functional; settings: HCT-15, 48 h
ACHN = assay: Growth inhibition of human ACHN cells after 48 hrs by sulforhodamine B assay; format: functional
SN12C = assay: Growth inhibition of human SN12C cells after 48 hrs by sulforhodamine B assay; format: functional
NCI-H460 = assay: Growth inhibition of human NCI-H460 cells after 48 hrs by sulforhodamine B assay; format: functional; settings: NCI-H460, 48 h
TK-10 = assay: Growth inhibition of human TK10 cells after 48 hrs by sulforhodamine B assay; format: functional; settings: TK-10, 48 h
OVCAR-4 = assay: Growth inhibition of human OVCAR4 cells after 48 hrs by sulforhodamine B assay; format: functional; settings: OVCAR-4, 48 h
UO-31 = assay: Growth inhibition of human UO31 cells after 48 hrs by sulforhodamine B assay; format: functional; settings: UO-31, 48 h

`O=C(c1ccc2c(c1)Sc1ccccc1N2)c1c[nH]c2ccccc12` gave a GI50 (SF-295) of 323 nM, a GI50 (SK-MEL-28) of 647 nM and a GI50 (HL-60(TB)) of 382 nM. For the same molecule, the GI50 (HT-29) was 368 nM, the IC50 [1] was 38900 nM and the GI50 [2] was 11600 nM. It also gave a GI50 (SF-268) of 1500 nM, a GI50 (A549) of 634 nM and a GI50 (CAKI-1) of 462 nM. For the same molecule, the GI50 (Malme-3M) was 997 nM, the GI50 [3] was 247 nM and the GI50 (786-0) was 1900 nM. For the same molecule, the inhibition (Ovis aries) was 66%, the GI50 (HCT-116) was 404 nM and the GI50 (SK-OV-3) was 533 nM. It also gave a GI50 (OVCAR-3) of 404 nM, a GI50 [4] of 702 nM and a GI50 (SF-539) of 576 nM. For the same molecule, the GI50 (PC-3) was 654 nM, the GI50 (IGROV-1) was 620 nM and the GI50 (MOLT-4) was 3750 nM. It also gave a GI50 (OVCAR-5) of 1750 nM, a GI50 (SK-MEL-2) of 397 nM and a GI50 (A498) of 251 nM. For the same molecule, the GI50 (MDA-MB-468) was 314 nM, the GI50 (MDA-MB-231) was 1110 nM and the GI50 (MCF7) was 293 nM. For the same molecule, the GI50 (SR) was 382 nM, the GI50 (M14) was 372 nM and the GI50 (HOP-92) was 970 nM. It also gave a GI50 (NCI-H522) of 248 nM, a GI50 (UACC-257) of 581 nM and a GI50 (RPMI-8226) of 761 nM. The GI50 (K562) was 395 nM, the GI50 (SK-MEL-5) was 408 nM and the GI50 (HOP-62) was 670 nM. For the same molecule, the GI50 (COLO 205) was 435 nM, the GI50 [5] was 976 nM and the GI50 (OVCAR-8) was 1040 nM. It also gave a GI50 (CCRF-CEM) of 380 nM, a GI50 (LOX IMVI) of 446 nM and a GI50 (T47D) of 502 nM. The GI50 (RXF 393) was 1270 nM, the GI50 (SNB-75) was 326 nM and the GI50 (NCI-H23) was 943 nM. The GI50 (BT-549) was 398 nM, the GI50 (DU-145) was 1420 nM and the GI50 (SW-620) was 406 nM. The GI50 (KM12) was 365 nM, the GI50 (MDA-MB-435) was 112 nM and the GI50 (UACC-62) was 532 nM. The GI50 (HCT-15) was 489 nM, the GI50 (ACHN) was 1780 nM and the GI50 (SN12C) was 888 nM. The GI50 (NCI-H460) was 429 nM, the GI50 (TK-10) was 2140 nM and the GI50 (OVCAR-4) was 16500 nM. For the same molecule, the GI50 (UO-31) was 1030 nM.
